From patent publication US8916575B2, “Quinazoline derivatives for the treatment of viral infections and further diseases” (Janssen R&D Ireland, priority 2011, dated 2014)

How the values were obtained:
[1] = system: human TLR7 mutant (dIRR2); test: TLR7 mutant (deletion in second leucine-rich repeat) NFκB-luc cellular reporter assay; format: cell-based; parameters: unit not given here; conditions: HEK293 NFκB-luc reporter, mutant TLR7, 6 hours incubation
Procedure: (§1) The ability of compounds to activate human TLR7 and/or TLR8 was assessed in a cellular reporter assay using HEK293 cells transiently transfected with a TLR7 or TLR8 expression vector and NFκB-luc reporter construct. In one instance the TLR expression construct expresses the respective wild type sequence or a mutant sequence comprising a deletion in the second leucine-rich repeat of the TLR.
(§2) Briefly, HEK293 cells were grown in culture medium (DMEM supplemented with 10% FCS and 2 mM Glutamine). For transfection of cells in 10 cm dishes, cells were detached with Trypsin-EDTA, transfected with a mix of CMV-TLR7 or TLR8 plasmid (750 ng), NFκB-luc plasmid (375 ng) and a transfection reagent and incubated 24 hours at 37° C. in a humidified 5% CO2 atmosphere. Transfected cells were then detached with Trypsin-EDTA, washed in PBS and resuspended in medium to a density of 1.67×10^5 cells/mL. Thirty microliters of cells were then dispensed into each well in 384-well plates, where 10 μL of compound in 4% DMSO was already present. Following 6 hours incubation at 37° C., 5% CO2, the luciferase activity was determined by adding 15 μl of Steady Lite Plus substrate (Perkin Elmer) to each well and readout performed on a ViewLux ultraHTS microplate imager (Perkin Elmer). Dose response curves were generated from measurements performed in quadruplicates. Lowest effective concentrations (LEC) values, defined as the concentration that induces an effect which is at least two fold above the standard deviation of the assay, were determined for each compound.

human TLR8 = target: T1, human TLR8 (Homo sapiens, UniProt Q9NR97); test: TLR8 wild type NFκB-luc cellular reporter assay; format: cell-based; parameters: unit not given here; conditions: HEK293 NFκB-luc reporter, 6 hours incubation; for TLR8-wt (LEC): second part of table
T1 construct: expressed in transfected cells; host or cells: HEK293
T1 sequence (Q9NR97 27-1041): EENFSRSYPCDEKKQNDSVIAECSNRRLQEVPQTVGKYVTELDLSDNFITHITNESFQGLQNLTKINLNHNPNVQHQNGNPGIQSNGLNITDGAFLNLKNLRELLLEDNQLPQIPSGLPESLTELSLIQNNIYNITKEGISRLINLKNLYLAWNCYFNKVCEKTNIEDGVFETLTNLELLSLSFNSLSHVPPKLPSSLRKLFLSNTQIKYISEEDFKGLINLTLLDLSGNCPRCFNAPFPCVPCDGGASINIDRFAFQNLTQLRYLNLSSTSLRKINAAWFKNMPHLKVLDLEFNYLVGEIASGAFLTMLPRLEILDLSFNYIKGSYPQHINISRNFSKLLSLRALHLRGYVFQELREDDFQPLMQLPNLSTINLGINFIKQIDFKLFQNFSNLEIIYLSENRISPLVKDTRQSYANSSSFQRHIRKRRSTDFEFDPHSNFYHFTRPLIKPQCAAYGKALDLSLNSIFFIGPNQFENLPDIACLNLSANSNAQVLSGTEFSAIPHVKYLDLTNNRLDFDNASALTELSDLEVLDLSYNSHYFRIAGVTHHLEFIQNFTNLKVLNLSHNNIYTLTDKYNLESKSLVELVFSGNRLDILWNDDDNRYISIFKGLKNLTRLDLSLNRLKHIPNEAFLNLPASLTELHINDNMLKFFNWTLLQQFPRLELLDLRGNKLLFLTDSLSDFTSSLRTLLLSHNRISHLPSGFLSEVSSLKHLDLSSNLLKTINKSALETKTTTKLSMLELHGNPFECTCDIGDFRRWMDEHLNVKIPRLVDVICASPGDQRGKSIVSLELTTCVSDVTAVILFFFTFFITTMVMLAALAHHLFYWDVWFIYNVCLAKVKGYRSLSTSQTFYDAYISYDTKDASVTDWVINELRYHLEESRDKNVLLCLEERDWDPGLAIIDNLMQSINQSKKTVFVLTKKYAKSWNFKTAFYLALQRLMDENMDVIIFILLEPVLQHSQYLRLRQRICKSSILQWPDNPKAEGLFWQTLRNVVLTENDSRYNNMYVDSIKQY
Procedure: as §1, §2

[2] = system: human TLR8 mutant (dIRR2); test: TLR8 mutant (deletion in second leucine-rich repeat) NFκB-luc cellular reporter assay; format: cell-based; parameters: unit not given here; conditions: HEK293 NFκB-luc reporter, mutant TLR8, 6 hours incubation
Procedure: as §1, §2

[3] = system: HCV replicon (Huh-7 luc/neo cells); test: Suppression of HCV replicon replication by conditioned media from PBMC; format: cell-based, HCV type 1b; conditions: Hepatitis C virus, compound concentration applied to PBMCs giving 50% reduction of replicon luciferase activity, read-out: PBMC-HUH7_EC50
Procedure: Activation of human TLR7 results in robust production of interferon by plasmacytoid dendritic cells present in human blood. The potential of compounds to induce interferon was evaluated by looking at the antiviral activity in the HCV replicon system upon incubation with conditioned media from peripheral blood mononuclear cells (PBMC). The HCV replicon assay is based on a bicistronic expression construct, as described by Lohmann et al. (Science (1999) 285: 110-113; Journal of Virology (2003) 77: 3007-15 3019) with modifications described by Krieger et al. (Journal of Virology (2001) 75: 4614-4624). The assay utilized the stably transfected cell line Huh-7 luc/neo harboring an RNA encoding a bicistronic expression construct comprising the wild type NS3-NS5B regions of HCV type 1b translated from an Internal Ribosome Entry Site (IRES) from encephalomyocarditis virus (EMCV), preceded by a reporter gene (Firefly-luciferase) and a selectable marker gene (neoR, neomycine phosphotransferase). The construct is flanked by 5′ and 3′ NTRs (non-translated regions) from HCV type 1b. Continued culture of the replicon cells in the presence of G418 (neoR) is dependent on the replication of the HCV RNA. The stably transfected replicon cells that replicate HCV RNA autonomously and to high levels, encoding inter alia luciferase, were used for profiling of the conditioned cell culture media.
Briefly, PBMCs were prepared from buffy coats of at least two donors using a standard Ficoll centrifugation protocol. Isolated PBMCs were resuspended in RPMI medium supplemented with 10% human AB serum and 2×10^5 cells/well were dispensed into 384-well plates containing compounds (70 μL total volume). After overnight incubation, 10 μL of supernatant was transferred to 384-well plates containing 2.2×10^3 replicon cells/well in 30 μL (plated the day before). Following 24 hours of incubation, replication was measured by assaying luciferase activity using 40 μL/well Steady Lite Plus substrate (Perkin Elmer) and measured with ViewLux ultraHTS microplate imager (Perkin Elmer). The inhibitory activity of each compound on the Huh7-luc/neo cells were reported as EC50 values, defined as the compound concentration applied to the PBMCs resulting in a 50% reduction of luciferase activity which in turn indicates the degree of replication of the replicon RNA on transfer of a defined amount of PBMC culture medium. Recombinant interferon α-2a (Roferon-A) was used as a standard control compound.

human TLR7 = target: T2, human TLR7 (Homo sapiens, UniProt Q9NYK1); test: TLR7 wild type NFκB-luc cellular reporter assay; format: cell-based; parameters: unit not given here; conditions: HEK293 NFκB-luc reporter, 6 hours incubation; for TLR7-wt (LEC): second part of table
T2 construct: expressed in transfected cells; host or cells: HEK293
T2 sequence (Q9NYK1 27-1049): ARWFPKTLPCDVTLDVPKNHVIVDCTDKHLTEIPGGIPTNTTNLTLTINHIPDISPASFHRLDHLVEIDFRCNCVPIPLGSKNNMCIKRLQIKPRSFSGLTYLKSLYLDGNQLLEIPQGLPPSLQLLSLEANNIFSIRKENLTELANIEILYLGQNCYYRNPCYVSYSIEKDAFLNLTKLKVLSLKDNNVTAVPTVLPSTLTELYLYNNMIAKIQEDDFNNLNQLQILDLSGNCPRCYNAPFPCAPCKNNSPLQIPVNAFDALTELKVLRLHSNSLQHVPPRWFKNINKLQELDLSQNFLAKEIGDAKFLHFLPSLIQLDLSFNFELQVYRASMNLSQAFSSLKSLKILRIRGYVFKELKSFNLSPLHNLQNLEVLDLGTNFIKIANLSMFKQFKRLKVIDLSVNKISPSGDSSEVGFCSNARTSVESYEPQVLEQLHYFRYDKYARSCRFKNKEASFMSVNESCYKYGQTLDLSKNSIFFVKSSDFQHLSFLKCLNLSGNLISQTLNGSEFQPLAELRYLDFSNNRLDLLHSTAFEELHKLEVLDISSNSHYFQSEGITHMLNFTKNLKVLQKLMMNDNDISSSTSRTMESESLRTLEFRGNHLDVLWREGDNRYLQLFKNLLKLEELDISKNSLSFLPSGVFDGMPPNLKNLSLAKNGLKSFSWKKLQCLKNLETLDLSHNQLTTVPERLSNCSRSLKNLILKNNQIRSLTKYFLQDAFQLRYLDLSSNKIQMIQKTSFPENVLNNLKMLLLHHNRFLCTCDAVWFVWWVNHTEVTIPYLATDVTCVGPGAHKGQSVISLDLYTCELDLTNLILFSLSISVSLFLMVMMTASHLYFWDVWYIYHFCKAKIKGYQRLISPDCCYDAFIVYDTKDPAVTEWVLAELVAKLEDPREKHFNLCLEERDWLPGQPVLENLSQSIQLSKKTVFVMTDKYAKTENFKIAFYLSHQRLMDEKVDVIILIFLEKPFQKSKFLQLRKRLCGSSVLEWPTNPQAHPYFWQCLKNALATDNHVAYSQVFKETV
Procedure: as §1
as §2, with “Following 6 hours incubation at 37° C., 5% CO2, the luciferase activity was determined by adding 15 μl of Steady Lite Plus substrate (Perkin Elmer) to each well and readout performed on a ViewLux ultraHTS microplate imager (Perkin Elmer).” left out

Structure (SMILES)	TLR7-wt (LEC) (human TLR7)	TLR8-wt (LEC) (human TLR8)	further results
CCCCCNc1nc(N)nc2cc(OC)c(OC)cc12 [Compound 2]			TLR7-dIRR2_LEC [1]: 1.2; TLR8-wt_LEC (human TLR8): 1.5; TLR8-dIRR2_LEC [2]: 0.6; EC50 [3]: 4.4 µM
CCCC[C@@H](CO)Nc1nc(N)nc2cc(OC)c(OC)cc12 [Compound 4]			TLR7-dIRR2_LEC [1]: 2.4; TLR8-wt_LEC (human TLR8): 2.6; TLR8-dIRR2_LEC [2]: 1.7; EC50 [3]: 3 µM
CCC[C@@H](CCO)Nc1nc(N)nc2cc(OC)c(OC)cc12 [Compound 5]			TLR7-dIRR2_LEC [1]: 2.6; TLR8-wt_LEC (human TLR8): 6.7; TLR8-dIRR2_LEC [2]: 2.6; EC50 [3]: 3.3 µM
CCC[C@@H](CO)Nc1nc(N)nc2cc(OC)c(OC)cc12 [Compound 6]			TLR7-dIRR2_LEC [1]: 3.4; TLR8-wt_LEC (human TLR8): 4.4; TLR8-dIRR2_LEC [2]: 2.3; EC50 [3]: 3 µM
CCCCNc1nc(N)nc2ccccc12 [Compound 8]			TLR7-wt_LEC (human TLR7; lowest effective concentration): 0.1; TLR7-dIRR2_LEC [1]: 0.02; TLR8-wt_LEC (human TLR8): 0.1; TLR8-dIRR2_LEC [2]: 0.02
CCCCNc1nc(N)nc2cccc(CCc3ccccn3)c12 [Compound 12]	1.66	0.79	
CCCCNc1nc(N)nc2ccc(C#CC(C)O)cc12 (centres unmarked) [Compound 14]	0.65	4.77	
CCCCNC(=O)c1cccc2nc(N)nc(NCCCC)c12 [Compound 15]	0.49	3.27	
CCCCNc1nc(N)nc2ccc(CCC(C)O)cc12 (centres unmarked) [Compound 16]	0.57	0.73	
CCCCNc1nc(N)nc2ccc(C#N)cc12 [Compound 19]	>25	7.05	
CCCCNc1nc(N)nc2ccc(-c3cnn(C)c3)cc12 [Compound 20]	>25	2.55	
CCCCNc1nc(N)nc2ccc(C(C)=O)cc12 [Compound 22]	6.07	1.95	
CCCCNc1nc(N)nc2ccc(C(C)O)cc12 (centres unmarked) [Compound 23]	10.23	5.05	
CCCCNc1nc(N)nc2cc(C(=O)Nc3cccnc3)ccc12 [Compound 90]	0.42		
CCCCNc1nc(N)nc2cc(C(=O)N3CCOCC3)ccc12 [Compound 91]	0.13	0.53	
CCCCNc1nc(N)nc2cc(C(=O)NCCN(C)C)ccc12 [Compound 92]	1.53	5.87	
CCCCNc1nc(N)nc2cc(C(=O)NCc3ccccn3)ccc12 [Compound 93]	0.77	1.69	
CCCCNc1nc(N)nc2cc(C(=O)N(C)C)ccc12 [Compound 94]	0.07	0.48	
CCCCNc1nc(N)nc2cc(C(=O)NCc3ccccc3)ccc12 [Compound 95]	0.54	0.42	
CCCCNc1nc(N)nc2cccc(CCc3ccc(OC)cc3)c12 [Compound 96]	2.7	16	
CCCCNc1nc(N)nc2cccc(CCc3cccc(OC)c3)c12 [Compound 97]	0.6	0.83	
CCCCNc1nc(N)nc2cccc(OCC(=O)OC)c12 [Compound 98]	0.21	0.31	
